Data on 54 compounds can be found in ChEMBL document CHEMBL1201862, “PubChem BioAssay data set” (2004).

Some targets named below: Cytochrome P450 3A4 (Homo sapiens, UniProt P08684); Cytochrome P450 2C9 (Homo sapiens, UniProt P11712); Cytochrome P450 2D6 (Homo sapiens, UniProt P10635).
Experiment [1] concerns Streptococcus sp. 'group A'. In words: Streptococcus pyogenes SK(-)GAS viability under kanamycin – luminescence, BacTiterGlo, confirmation, counter-screen for streptokinase expression inhibitor project, dose response (AID 1900). Format: functional, organism-based.
A further experiment concerns Streptococcus. Put plainly: GAS UMAA2166 growth inhibition – luminescence, BacTiterGlo, counter-screen for streptokinase expression inhibitor project, dose response (AID 1915).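 Note: potency for reduction of bacterial viability or growth.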 Format: functional, organism-based.
The target of another experiment is T1, Streptokinase A (Streptococcus pyogenes serotype M1, UniProt P10520).
T1 sequence (P10520 whole entry): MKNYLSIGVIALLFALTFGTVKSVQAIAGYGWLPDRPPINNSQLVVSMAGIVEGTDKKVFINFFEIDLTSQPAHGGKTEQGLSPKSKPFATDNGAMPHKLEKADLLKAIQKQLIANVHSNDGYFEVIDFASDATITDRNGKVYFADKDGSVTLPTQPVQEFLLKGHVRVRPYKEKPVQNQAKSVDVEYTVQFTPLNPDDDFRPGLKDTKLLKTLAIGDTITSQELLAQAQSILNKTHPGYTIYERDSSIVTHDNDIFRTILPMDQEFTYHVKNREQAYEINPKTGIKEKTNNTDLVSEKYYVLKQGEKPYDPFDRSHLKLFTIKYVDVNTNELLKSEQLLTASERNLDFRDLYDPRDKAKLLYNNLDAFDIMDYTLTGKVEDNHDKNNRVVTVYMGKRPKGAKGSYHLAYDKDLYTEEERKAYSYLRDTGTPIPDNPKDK
Put plainly: viability-normalized secreted streptokinase activity reduction – plasminogen activation absorbance, OD405, dose response (AID 1914).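 Note: secreted streptokinase activity via plasminogen activation per viability signal from cell pellet.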 Format: functional, Streptococcus pyogenes M1 GAS.

Experiment [2] in a line: Trypanosoma cruzi growth suppression in host cells – NIH3T3 host cells, beta-gal luminescence, confirmation (AID 2044).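 Note: intracellular parasites grown in NIH/3T3 mouse fibroblasts as host cells; luminescent beta-galactosidase reporter signal from transgenic T. cruzi replicating inside host cells; inhibitors lower the luminescence signal.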 Format: functional, cell-based.
Experiment [3] is described as follows: NIH3T3 cell viability loss – ATP luminescence, mouse fibroblasts, counter-screen, dose response (AID 2010).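 Note: cells exposed to compound for about 90 hours before reading.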 It counts as functional, cell-based. Background: A counterscreen serves to expose hits that act by an unwanted route or on another target.

Active and inactive are the calls of the source. Cut-off read from the data, not from the text of the source, for most assays here: actives have a measured EC50 and inactives only a lower limit.

Cytochrome P450 3A4, sequence (P08684 whole entry): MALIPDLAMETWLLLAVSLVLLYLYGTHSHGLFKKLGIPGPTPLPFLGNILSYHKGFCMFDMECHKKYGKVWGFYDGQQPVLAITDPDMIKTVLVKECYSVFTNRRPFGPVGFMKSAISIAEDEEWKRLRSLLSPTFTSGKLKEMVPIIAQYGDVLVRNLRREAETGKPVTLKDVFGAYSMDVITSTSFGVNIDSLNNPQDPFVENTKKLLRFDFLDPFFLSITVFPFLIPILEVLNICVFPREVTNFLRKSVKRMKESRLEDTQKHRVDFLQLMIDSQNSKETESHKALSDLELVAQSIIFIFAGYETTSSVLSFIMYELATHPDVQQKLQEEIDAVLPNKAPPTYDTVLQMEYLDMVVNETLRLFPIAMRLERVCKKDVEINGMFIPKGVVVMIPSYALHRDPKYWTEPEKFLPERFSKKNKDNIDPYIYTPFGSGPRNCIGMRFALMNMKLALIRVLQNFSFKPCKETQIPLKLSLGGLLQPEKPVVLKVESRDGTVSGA
Cytochrome P450 2C9, sequence (P11712 whole entry): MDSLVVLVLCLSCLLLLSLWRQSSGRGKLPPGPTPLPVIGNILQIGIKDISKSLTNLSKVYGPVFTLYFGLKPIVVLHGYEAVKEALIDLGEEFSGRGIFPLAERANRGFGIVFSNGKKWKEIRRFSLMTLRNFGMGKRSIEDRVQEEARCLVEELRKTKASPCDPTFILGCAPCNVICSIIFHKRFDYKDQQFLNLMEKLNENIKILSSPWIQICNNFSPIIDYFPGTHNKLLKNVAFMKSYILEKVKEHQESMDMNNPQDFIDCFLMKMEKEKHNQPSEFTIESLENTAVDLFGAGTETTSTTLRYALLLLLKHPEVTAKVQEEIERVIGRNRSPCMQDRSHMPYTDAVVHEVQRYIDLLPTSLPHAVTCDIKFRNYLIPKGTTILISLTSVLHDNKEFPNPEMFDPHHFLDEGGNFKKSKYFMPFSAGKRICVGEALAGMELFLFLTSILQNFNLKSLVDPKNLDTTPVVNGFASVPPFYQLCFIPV
Cytochrome P450 2D6, sequence (P10635 whole entry): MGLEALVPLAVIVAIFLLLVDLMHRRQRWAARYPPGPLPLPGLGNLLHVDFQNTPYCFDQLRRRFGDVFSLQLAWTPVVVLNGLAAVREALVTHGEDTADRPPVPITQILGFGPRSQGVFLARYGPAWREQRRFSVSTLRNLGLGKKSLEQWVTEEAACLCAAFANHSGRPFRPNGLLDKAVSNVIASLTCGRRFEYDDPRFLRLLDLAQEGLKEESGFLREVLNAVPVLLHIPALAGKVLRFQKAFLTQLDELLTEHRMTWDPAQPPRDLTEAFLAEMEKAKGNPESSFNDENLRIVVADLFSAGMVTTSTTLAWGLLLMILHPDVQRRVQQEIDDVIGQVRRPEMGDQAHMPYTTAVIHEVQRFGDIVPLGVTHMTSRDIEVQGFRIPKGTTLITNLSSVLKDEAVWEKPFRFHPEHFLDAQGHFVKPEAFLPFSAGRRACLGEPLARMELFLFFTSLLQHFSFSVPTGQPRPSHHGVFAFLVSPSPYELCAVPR

Broadly, the AC50 is the concentration giving half of the maximal activity seen. For `COc1cc(OC)nc(Oc2ccccc2C(=O)Oc2cccc(C)c2)n1`, on Cytochrome P450 3A4, the AC50 was 17.8 µM (inconclusive).
A word on the EC50: it is the midpoint of the concentration-response curve. For the compound `CCCOc1ccc(C(=O)NC(=S)N2CCN(c3cc4c(cc3F)c(=O)c(C(=O)O)cn4CC)CC2)cc1`, the 50% effective concentration (EC50) was 4.62 µM (active) in experiment [1] and 6.47 µM (active) in the experiment on Streptococcus.
For `COc1ccc(C(=O)NC(=S)Nc2ccc(N3CCOCC3)c(Cl)c2)cc1[N+](=O)[O-]`, the EC50 was 1.73 µM (active) in experiment [1], > 150 µM (not active) on Streptokinase A and 19.3 µM (active) in the experiment with Streptococcus.
For `O=c1cnc2cnc(N3CCOCC3)nc2n1Cc1ccc(F)cc1`, the AC50 is 12.6 µM (inconclusive) on Cytochrome P450 3A4 and 25.1 µM (inconclusive) at Cytochrome P450 2C9.
Consider `COc1ccc(C(=O)N2CCC3(CCN(Cc4ccccc4OC)CC3)CC2)cc1`, for which the AC50 at Cytochrome P450 2D6 was 12.6 µM (inconclusive).
Take `COc1ccc(-c2nc(NC(C)=O)sc2-c2ccc(OC)cc2)cc1`: the figures for the EC50 (in experiment [1]; at Streptokinase A; with Streptococcus) were 6.7 µM (active), 3.44 µM (active) and 14.6 µM (active), respectively.
Regarding `CC(C)CN1CCC2(CC1)CCN(C(=O)Oc1ccccc1)CC2`, the half-maximal activity concentration (AC50) at Cytochrome P450 2D6 is 20 µM (inconclusive).
As to `Cc1ccc(S(=O)(=O)NCc2ccccc2)cc1`, on Cytochrome P450 3A4, the half-maximal activity concentration (AC50) was 31.6 µM (inconclusive).
Turning to `COc1ccccc1CNc1ccc2c(c1)CCC2`, the results for the EC50 in experiment [2] and in experiment [3] were 2.21 µM (active) and > 60 µM (not active), respectively.
Turning to `CCOC(=O)n1c(=O)n(Cc2c(Cl)cccc2Cl)c2ccccc21`, the AC50 on Cytochrome P450 3A4 is 15.8 µM (inconclusive).
As to `CCCCCCOC(=O)/C=C/c1c(C)nc(O)nc1O`, the EC50 in experiment [1] was 0.604 µM (active); at Streptokinase A, > 150 µM (not active); with Streptococcus, 4.6 µM (active).
As for `COc1ccc(C(=O)/C=C2/c3ccccc3CC(C)(C)N2C)cc1`, on Cytochrome P450 2C9, the AC50 was 20 µM (inconclusive).
Regarding `COc1ccc(-n2c(S)nnc2-c2cnccn2)cc1`, the AC50 on Cytochrome P450 3A4 was 14.1 µM (inconclusive).
For `CCCCCCCNC(=O)C1(CC2CC(c3cccc(Br)c3)=NO2)CCN(C(=O)c2ccccc2)CC1` (configuration not stated), the EC50 in experiment [2] is 2.62 µM (active); in experiment [3] it was > 60 µM (not active).
On to `CN1c2ccc([N+](=O)[O-])cc2CC2(C(=O)NC(=O)N(c3ccccc3)C2=O)C1c1ccccc1` (configuration not stated), for which the EC50 is 1.94 µM (active) in experiment [2] and > 60 µM (not active) in experiment [3].
`NC(=O)C1(NC(=O)[C@@H]2CC3(CC(c4cccc(NC(=O)c5cc([N+](=O)[O-])cc([N+](=O)[O-])c5)c4)=NO3)CN2C(=O)c2ccccc2)CC1` (some centres not stated): the AC50 at Cytochrome P450 2C9 was 11.2 µM (inconclusive).
In the case of `O=C(Nc1cccc(F)c1)N1CC2(CCNCC2)C1`, the AC50 on Cytochrome P450 2D6 was 7.94 µM (inconclusive).
The same measure, in the same setting: as for `CNc1cc(-c2ccccc2C)ncn1`, the figure is 39.8 µM (inconclusive); as for `COc1cc(C=O)ccc1OCCOCCOc1ccccc1Cl`, 20 µM (inconclusive).
For the compound `COc1cc(C)ccc1OCCCOc1ccccc1Br`, the concentration for a half-maximal effect (EC50) (in experiment [1]; at Streptokinase A; in the experiment on Streptococcus) was > 150 µM (not active) each time. The AC50 at Cytochrome P450 2C9 is 39.8 µM (inconclusive).
As to `Cc1ccc(CSCC(=O)N2CCN(c3ccc(F)cc3)CC2)cc1`, the EC50 was 2.18 µM (active) in experiment [2] and > 60 µM (not active) in experiment [3].
On to `COC(=O)c1cc(-c2ccc(Br)cc2)c2c(=O)[nH]c(=O)n(C)c2n1`, for which the EC50 in experiment [1] was 2.45 µM (active); in the experiment with Streptococcus it was 5.63 µM (active).
As for `COc1cc(F)ccc1CN1CCC(n2nccc2NC(=O)C2CCOC2)CC1` (configuration not stated), the concentration for a half-maximal effect (EC50) (in experiment [1]; at Streptokinase A; with Streptococcus) was > 150 µM (not active) each time.
Turning to `CS(=O)(=O)N1CCC2(CC1)CN(C(=O)Nc1cccc(C#N)c1)C2`, the AC50 on Cytochrome P450 3A4 was 0.0251 µM (inconclusive).
On the same count and under the same terms, as for `Cc1ccc(S(=O)(=O)N[C@H]2COC(=O)[C@@H](C)COC(=O)[C@H](C)NC(=O)C/C=C\[C@H]2C)cc1`, the figure is 3.98 µM (inconclusive).
Turning to `O=C(CC(=O)c1ccncc1)c1ccccc1`, the AC50 on Cytochrome P450 2D6 is 1.58 µM (inconclusive); on Cytochrome P450 2C9, 2 µM (inconclusive).
As to `CCCCNC(=O)c1ccc(NC(C)=O)c(Cl)c1`, the EC50 (in experiment [1]; on Streptokinase A; with Streptococcus) was > 150 µM (not active) in each case.
For the compound `COc1ccc2cc3cc(C(=O)NCCN4CCN(c5ccccc5F)CC4)oc3nc2c1`, the results for the AC50 on Cytochrome P450 2D6 and at Cytochrome P450 2C9 were 31.6 µM (inconclusive) and 22.4 µM (inconclusive), respectively.
Turning to `CN(C)c1ccc(C2SCCN2C(=O)c2ccc([N+](=O)[O-])cc2)cc1` (configuration not stated), the EC50 in experiment [2] is 0.874 µM (active); in experiment [3], > 30 µM (not active).
Take `COc1cnc(-c2ccccc2)nc1Oc1cccc(C)c1`: the AC50 at Cytochrome P450 2C9 is 39.8 µM (inconclusive).
`Cc1cccc(C)c1NC(=O)C(NC=O)c1ccccc1Cl` (configuration not stated): at Cytochrome P450 2C9, the AC50 is 12.6 µM (inconclusive).
For `CCn1cc([N+](=O)[O-])c(C(=O)N2N=C(c3ccc4ccccc4c3)CC2c2cc(Br)ccc2O)n1` (configuration not stated), the EC50 was 2.19 µM (active) in experiment [2] and > 60 µM (inconclusive) in experiment [3].
Regarding `CC(C)c1csc(CN2CCC(CO)(Cc3ccccc3)CC2)n1`, the results for the concentration giving a half-maximal response (EC50) in experiment [2] and in experiment [3] were 0.891 µM (active) and > 60 µM (not active), respectively.
As for `c1ccc(N2CC[C@@]3(CCCNC3)C2)nc1`, at Cytochrome P450 3A4, the half-maximal activity concentration (AC50) is 15.8 µM (inconclusive).
Consider `CC1CCC(C(C)C)C(OC(=O)C[n+]2cc(-c3ccc(Cl)cc3)n3c2CCC3)C1` (configuration not stated), for which the values for the EC50 in experiment [2] and in experiment [3] were 0.144 µM (active) and > 60 µM (not active), respectively.
In the case of `COc1cccc(Nc2ncc3ncc(=O)n(C4CC4)c3n2)c1`, the AC50 on Cytochrome P450 3A4 is 6.31 µM (inconclusive); at Cytochrome P450 2C9 it was 15.8 µM (inconclusive).
As to `COc1ccccc1N1CC(C(=O)Nc2nnc(SCC(=O)NCC3CCCO3)s2)CC1=O` (configuration not stated), the EC50 (in experiment [1]; at Streptokinase A; with Streptococcus) was > 150 µM (not active) each time.
Turning to `Cc1sc(NC(=O)Cc2ccc3c(c2)OCO3)nc1-c1ccc2c(c1)CCN2C(=O)c1ccccc1F`, the EC50 was 1.69 µM (active) in experiment [2] and > 60 µM (not active) in experiment [3].
For the compound `O=C1C=C(NC(=O)Nc2ccc(Cl)c(Cl)c2)CCC1`, the figures for the EC50 (in experiment [1]; at Streptokinase A; in the experiment on Streptococcus) were 18 µM (active), > 150 µM (not active) and > 150 µM (not active), respectively.
As for `COc1ccccc1CN1CCC2(CC1)CCN(C(=O)c1csnn1)CC2`, the AC50 at Cytochrome P450 3A4 was 31.6 µM (inconclusive).
`CCOC(=O)c1sc2ncnc(N3CCN(c4ccc(OC)cc4)CC3)c2c1C`: the EC50 in experiment [1] is 7.62 µM (active); on Streptokinase A, > 150 µM (not active); with Streptococcus, > 150 µM (not active).
Take `O=C(c1ccco1)N1CCC[C@@]2(CCN(Cc3ccncc3)C2)C1`: the concentration at half-maximal activity (AC50) on Cytochrome P450 3A4 is 15.8 µM (inconclusive).
In the case of `CCc1ccc(-c2cc(C)no2)cc1S(=O)(=O)Nc1cccc(CN2CCCC2)c1`, the EC50 (in experiment [1]; at Streptokinase A; in the experiment with Streptococcus) was > 150 µM (not active) in each case.
For the compound `O=c1c([N+](=O)[O-])cc(C(F)(F)F)cn1Cc1c(Cl)cccc1Cl`, the concentration at half-maximal activity (AC50) at Cytochrome P450 2D6 was 25.1 µM (inconclusive); at Cytochrome P450 2C9, 22.4 µM (inconclusive).
For `COc1ccc([C@@H](Nc2ncccn2)c2cc3c(cc2O)OCO3)cc1`, on Cytochrome P450 2D6, the AC50 is 6.31 µM (inconclusive).
Consider `Cc1ccc(Sc2ccc(CN3CCCC3)cc2[N+](=O)[O-])cc1`, for which the EC50 is 0.206 µM (active) in experiment [2] and > 60 µM (not active) in experiment [3].
As to `Cc1ccc2ncc([N+](=O)[O-])n2c1`, the AC50 at Cytochrome P450 2C9 was 0.708 µM (inconclusive).
Consider `O=C(CCCCn1c(=O)c2ccccc2n(CC(=O)NC2CCCC2)c1=O)NC1CCCC1`, for which the AC50 at Cytochrome P450 2D6 is 14.1 µM (inconclusive).
In the case of `C/C(=N\NC(=O)COc1ccc(C)cc1C(C)C)c1cc2ccccc2o1`, the EC50 in experiment [1] was 15.5 µM (active); on Streptokinase A it was 30.5 µM (active); in the experiment with Streptococcus it was 24.1 µM (active).
Consider `Cc1ccc(/C(=N\O)c2oc3c(C)c4oc(=O)cc(C)c4cc3c2C)cc1`, for which the 50% effective concentration (EC50) was 1.23 µM (active) in experiment [2] and > 60 µM (not active) in experiment [3].
For `COC(=O)c1sc(N/N=C/c2ccc(C(C)C)cc2)nc1C` the same measures were 2.06 µM (active) and > 60 µM (not active).
On to `C/C(=N/NS(=O)(=O)c1ccc(C)cc1)c1cccc(NC(=O)c2cccc(Cl)c2)c1`, for which the AC50 at Cytochrome P450 2D6 is 4.47 µM (inconclusive).
For the compound `CCOc1ccc(-n2c(C)cc(/C=N/N(C)C)c2C)cc1`, the results for the EC50 in experiment [2] and in experiment [3] were 0.843 µM (active) and > 30 µM (not active), respectively.
For the compound `O=S(=O)(N/N=C\C=C\c1ccccc1)c1ccc(Br)cc1`, the AC50 at Cytochrome P450 2D6 was 22.4 µM (inconclusive).
